# Data taken from patent publication US20220370440A1 (Lead Discovery Center GmbH, priority 2018, published 2022).
# Assays:
# [1] = Metabolic stability in mouse liver microsomes without cofactor NADPH; assay type: in vitro ADME; details: 3 μM test compound, mouse liver microsomes, without NADPH, 50 min, 37° C., LC-MS/MS
# Procedure, shortened: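 Test compound (3 μM) was incubated with mouse liver microsomes without NADPH at 37° C. Depletion was followed by LC-MS/MS over time up to 50 min.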
# [2] = target: EGFR wt (Homo sapiens, UniProt P00533); assay: EGFR wt Lance assay; assay type: biochemical
# Procedure: (§1) Inhibition is indicated as […] [nM] (“−”=not measured). Compounds having an activity designated as “A” provided an IC50≤100 nM; compounds having an activity designated as “B” provided an 100 nM<IC50≤500 nM; compounds having an activity designated as “C” provided an 500 nM<IC50≤1000 nM; compounds having an activity designated as “D” provided an 1000 nM<IC50≤100000 nM; and compounds having an activity designated as “E” provided an IC50>10000 nM.
# [3] = target: EGFR Exon 20 INSNPH Ba/F3 (Homo sapiens, UniProt P00533, DUP771-773, cells depend on it); assay: EGFR Exon 20 INSNPH Ba/F3 CellTiter-Glo; assay type: cell-based; details: CellTiter-Glo, 72 h, read-out: EGFR Exon 20 INSNPH Ba/F3 CTG IC50
# Procedure, shortened: (§2)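 IC50 values, binned A (≤100 nM) through E (>10000 nM), come from luminescent ATP quantitation of viable mutant-driven Ba/F3 cells. Compound exposure lasted 72 h, starting 24 h post-seeding; DMSO and 10 μM staurosporine served as controls, Z′ ≥0.5 required.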
# [4] = target: T1, HER2 INS YVMA (Homo sapiens, UniProt P04626, INS775YVMA); assay: Lance Kinase Activity Assay, HER2 INS YVMA (Her2 Exon 20 INSYVMA Lance); assay type: biochemical; details: biochemical Lance assay
# T1 construct: purchased DPF
# Procedure, shortened: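 Kinase phosphorylates a ULight-labelled peptide substrate; Eu anti-phospho antibody gives TR-FRET (ex 340 nm, em 665/615 nm). Compounds in 1:3 serial dilution over 8 steps, reaction started with ATP, 1 h at room temperature, stopped with EDTA-containing detection mix for 1 h. IC50 from sigmoidal dose-response curves.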
# [5] = target: EGFR T790ML858R (Homo sapiens, UniProt P00533, L858R/T790M); assay: EGFR T790ML858R Lance assay; assay type: biochemical
# Procedure: as §1
# [6] = test system: A431; assay: A431 CellTiter-Glo; assay type: cell-based; details: Homo sapiens, A-431; 72 h compound incubation; read-out: A431 CTG IC50
# Procedure, shortened: (§3)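 Antiproliferative IC50 values come from a 72 h treatment of cultured cells, measured by CellTiter-Glo ATP luminescence. Only runs with a Z′-factor of at least 0.5, calculated from 16 vehicle and 16 Staurosporine (10 μM) control wells, are reported.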
# [7] = target: Her2 Exon 20 INSYVMA Ba/F3 (Homo sapiens, UniProt P04626, DUP772-775, cells depend on it); assay: Her2 Exon 20 INSYVMA Ba/F3 CellTiter-Glo; assay type: cell-based; details: CellTiter-Glo, 72 h, read-out: Her2 Exon 20 INSYVMA Ba/F3 CTG IC50
# Procedure, shortened: as §2
# [8] = test system: H1975; assay: H1975 CellTiter-Glo; assay type: cell-based; details: Homo sapiens, NCI-H1975; 72 h compound incubation; read-out: H1975 CTG IC50
# Procedure, shortened: as §3
# EGFR T790ML858R, sequence (P00533 25-1210 T790M/L858R): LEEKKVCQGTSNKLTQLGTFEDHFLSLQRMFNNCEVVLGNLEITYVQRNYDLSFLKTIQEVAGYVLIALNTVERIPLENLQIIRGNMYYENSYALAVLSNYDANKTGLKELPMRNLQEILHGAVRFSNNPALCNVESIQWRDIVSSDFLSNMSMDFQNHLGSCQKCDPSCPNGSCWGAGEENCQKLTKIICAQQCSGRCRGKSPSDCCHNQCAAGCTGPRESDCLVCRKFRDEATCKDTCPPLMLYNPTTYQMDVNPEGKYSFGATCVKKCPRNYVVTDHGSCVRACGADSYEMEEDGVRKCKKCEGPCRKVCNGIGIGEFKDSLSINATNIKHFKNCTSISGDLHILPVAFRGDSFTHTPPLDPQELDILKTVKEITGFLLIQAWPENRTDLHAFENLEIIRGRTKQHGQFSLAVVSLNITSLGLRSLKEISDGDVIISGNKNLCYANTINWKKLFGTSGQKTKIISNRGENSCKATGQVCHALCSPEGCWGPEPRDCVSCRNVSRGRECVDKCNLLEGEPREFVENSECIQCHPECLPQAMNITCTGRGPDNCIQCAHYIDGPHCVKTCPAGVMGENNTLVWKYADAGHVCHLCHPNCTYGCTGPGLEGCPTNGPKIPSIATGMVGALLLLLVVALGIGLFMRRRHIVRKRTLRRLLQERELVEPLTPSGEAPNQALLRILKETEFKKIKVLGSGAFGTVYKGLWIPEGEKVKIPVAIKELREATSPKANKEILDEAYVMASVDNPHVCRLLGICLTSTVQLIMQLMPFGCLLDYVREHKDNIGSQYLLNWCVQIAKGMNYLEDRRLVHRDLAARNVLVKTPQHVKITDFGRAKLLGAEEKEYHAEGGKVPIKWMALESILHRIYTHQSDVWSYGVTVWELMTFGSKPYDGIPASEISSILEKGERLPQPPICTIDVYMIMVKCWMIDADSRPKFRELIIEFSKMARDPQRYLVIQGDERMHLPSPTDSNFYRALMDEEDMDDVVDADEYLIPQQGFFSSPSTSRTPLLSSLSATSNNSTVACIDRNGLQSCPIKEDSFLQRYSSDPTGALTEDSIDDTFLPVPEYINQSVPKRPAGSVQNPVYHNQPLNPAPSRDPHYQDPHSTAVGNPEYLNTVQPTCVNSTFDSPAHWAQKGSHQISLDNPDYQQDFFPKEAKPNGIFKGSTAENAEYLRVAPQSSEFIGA
# Her2 Exon 20 INSYVMA Ba/F3, sequence (P04626 with tags, fused parts or gaps DUP772-775): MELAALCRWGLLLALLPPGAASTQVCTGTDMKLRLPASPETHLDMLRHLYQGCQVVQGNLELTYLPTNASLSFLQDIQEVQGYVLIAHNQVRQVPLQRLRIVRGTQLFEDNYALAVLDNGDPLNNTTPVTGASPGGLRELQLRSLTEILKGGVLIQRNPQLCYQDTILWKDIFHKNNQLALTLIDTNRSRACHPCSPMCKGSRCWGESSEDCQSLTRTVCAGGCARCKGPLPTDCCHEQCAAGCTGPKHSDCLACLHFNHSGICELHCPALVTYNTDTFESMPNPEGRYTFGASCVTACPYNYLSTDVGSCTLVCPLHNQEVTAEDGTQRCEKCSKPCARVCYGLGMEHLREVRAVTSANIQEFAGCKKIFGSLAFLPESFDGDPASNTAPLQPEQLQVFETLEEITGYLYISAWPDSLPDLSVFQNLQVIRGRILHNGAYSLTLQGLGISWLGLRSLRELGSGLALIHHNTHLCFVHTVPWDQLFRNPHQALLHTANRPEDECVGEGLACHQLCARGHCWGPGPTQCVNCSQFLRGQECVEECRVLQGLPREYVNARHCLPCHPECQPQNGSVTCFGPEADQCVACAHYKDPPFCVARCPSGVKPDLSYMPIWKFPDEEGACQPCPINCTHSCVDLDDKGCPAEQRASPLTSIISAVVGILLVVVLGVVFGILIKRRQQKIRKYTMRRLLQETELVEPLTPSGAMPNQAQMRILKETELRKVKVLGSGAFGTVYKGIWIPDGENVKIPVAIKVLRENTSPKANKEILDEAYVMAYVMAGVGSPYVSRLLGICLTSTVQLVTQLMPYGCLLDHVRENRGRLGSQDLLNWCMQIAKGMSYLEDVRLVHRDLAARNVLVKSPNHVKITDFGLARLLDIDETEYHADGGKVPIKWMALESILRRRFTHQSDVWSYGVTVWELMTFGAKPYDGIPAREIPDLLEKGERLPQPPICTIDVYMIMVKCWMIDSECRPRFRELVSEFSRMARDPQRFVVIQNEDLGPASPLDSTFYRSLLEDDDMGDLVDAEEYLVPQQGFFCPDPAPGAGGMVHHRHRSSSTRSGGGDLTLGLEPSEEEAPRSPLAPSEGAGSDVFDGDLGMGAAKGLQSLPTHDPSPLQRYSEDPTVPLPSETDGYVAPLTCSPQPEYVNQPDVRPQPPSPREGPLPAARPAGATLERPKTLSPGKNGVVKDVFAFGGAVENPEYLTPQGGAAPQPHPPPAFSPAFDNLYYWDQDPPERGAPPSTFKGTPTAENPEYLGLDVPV
# T1 sequence (P04626 with tags, fused parts or gaps INS775YVMA): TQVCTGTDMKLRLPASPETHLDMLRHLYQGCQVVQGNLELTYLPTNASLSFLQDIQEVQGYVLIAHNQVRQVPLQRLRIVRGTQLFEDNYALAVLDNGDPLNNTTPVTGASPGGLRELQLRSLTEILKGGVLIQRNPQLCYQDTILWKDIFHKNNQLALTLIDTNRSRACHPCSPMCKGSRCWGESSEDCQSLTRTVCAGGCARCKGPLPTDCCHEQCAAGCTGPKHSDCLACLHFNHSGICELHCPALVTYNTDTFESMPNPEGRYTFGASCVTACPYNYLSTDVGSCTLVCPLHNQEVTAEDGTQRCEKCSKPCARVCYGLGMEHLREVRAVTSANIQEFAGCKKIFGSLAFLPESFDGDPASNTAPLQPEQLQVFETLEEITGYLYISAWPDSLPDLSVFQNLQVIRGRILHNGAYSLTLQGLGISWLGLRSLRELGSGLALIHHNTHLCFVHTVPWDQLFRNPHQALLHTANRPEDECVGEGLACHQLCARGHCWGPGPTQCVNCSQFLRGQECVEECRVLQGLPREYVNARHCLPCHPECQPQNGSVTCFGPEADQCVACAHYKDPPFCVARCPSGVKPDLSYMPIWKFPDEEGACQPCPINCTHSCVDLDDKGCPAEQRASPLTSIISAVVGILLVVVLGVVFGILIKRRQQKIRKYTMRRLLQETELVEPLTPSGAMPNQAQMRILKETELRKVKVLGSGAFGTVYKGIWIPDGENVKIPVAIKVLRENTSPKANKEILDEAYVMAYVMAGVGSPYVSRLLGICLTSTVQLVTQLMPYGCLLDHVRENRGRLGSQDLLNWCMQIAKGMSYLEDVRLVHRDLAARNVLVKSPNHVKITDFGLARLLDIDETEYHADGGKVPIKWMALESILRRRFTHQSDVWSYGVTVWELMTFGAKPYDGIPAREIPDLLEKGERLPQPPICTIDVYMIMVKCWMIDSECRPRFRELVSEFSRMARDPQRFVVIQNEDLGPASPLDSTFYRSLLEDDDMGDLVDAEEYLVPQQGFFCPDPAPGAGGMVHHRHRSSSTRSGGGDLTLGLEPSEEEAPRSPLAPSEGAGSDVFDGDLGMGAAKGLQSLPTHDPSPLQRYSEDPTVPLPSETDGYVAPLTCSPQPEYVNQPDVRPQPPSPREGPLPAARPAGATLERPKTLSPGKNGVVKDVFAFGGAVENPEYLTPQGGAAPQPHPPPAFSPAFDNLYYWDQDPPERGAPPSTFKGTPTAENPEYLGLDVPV
# EGFR Exon 20 INSNPH Ba/F3, sequence (P00533 with tags, fused parts or gaps DUP771-773): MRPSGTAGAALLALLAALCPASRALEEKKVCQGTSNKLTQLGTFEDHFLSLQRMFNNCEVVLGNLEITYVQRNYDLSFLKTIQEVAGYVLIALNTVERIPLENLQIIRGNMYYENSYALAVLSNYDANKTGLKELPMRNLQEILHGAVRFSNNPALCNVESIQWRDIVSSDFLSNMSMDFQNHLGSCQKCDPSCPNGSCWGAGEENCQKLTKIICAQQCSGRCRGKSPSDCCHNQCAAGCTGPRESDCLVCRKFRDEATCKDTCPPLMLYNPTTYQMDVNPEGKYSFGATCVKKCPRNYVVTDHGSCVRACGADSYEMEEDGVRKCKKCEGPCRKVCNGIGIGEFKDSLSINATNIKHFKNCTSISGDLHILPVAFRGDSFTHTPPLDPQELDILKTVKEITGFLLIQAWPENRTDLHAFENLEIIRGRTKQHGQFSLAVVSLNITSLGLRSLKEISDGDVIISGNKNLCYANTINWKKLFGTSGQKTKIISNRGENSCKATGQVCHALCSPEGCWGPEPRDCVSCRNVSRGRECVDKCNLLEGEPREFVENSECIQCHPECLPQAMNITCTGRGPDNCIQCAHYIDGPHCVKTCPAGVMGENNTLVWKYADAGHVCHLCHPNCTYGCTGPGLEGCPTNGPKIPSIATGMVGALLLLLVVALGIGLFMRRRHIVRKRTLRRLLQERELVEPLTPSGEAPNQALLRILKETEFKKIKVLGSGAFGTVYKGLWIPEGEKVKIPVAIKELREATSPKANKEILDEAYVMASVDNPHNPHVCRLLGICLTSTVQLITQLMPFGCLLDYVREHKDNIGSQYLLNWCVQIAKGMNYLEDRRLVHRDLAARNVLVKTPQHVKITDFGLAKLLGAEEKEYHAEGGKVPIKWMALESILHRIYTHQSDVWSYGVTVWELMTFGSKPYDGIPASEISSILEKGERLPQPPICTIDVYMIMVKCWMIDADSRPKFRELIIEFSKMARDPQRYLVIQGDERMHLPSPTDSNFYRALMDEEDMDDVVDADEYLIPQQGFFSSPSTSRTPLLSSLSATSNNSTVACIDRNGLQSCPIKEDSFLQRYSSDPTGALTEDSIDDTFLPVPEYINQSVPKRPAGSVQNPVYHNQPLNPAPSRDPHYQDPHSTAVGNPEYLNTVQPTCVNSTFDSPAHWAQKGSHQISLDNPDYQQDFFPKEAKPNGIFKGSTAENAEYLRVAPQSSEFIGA
Structure (SMILES),Stability in presence of mouse liver microsomes without cofactor NADPH [% remaining after 50 min] [1],IC50 [2],GI50 [3],IC50 [4],IC50 [5],IC50 [6],GI50 [7],IC50 [8]
"C=CC(=O)Nc1cc(-c2c(-c3cccc(CN4CCN(C(C)=O)CC4)c3)[nH]c3ncccc23)ccc1C [Example 81, N-(5-(2-(3-((4-acetylpiperazin-1-yl)methyl)phenyl)-1H-pyrrolo[2,3-b]pyridin-3-yl)-2-methylphenyl)acrylamide]",80 % remaining after 50 min,100 to 500 nM,1000 to 10000 nM,1000 to 10000 nM,≤ 100 nM,1000 to 100000 nM,1000 to 10000 nM,1000 to 100000 nM
"C=CC(=O)N1CCc2ccc(-c3c(-c4ccc(N5CCN(C)CC5)cc4)[nH]c4nccc(OCC)c34)cc21 [Example 104, 1-(6-(4-ethoxy-2-(4-(4-methylpiperazin-1-yl)phenyl)-1H-pyrrolo[2,3-b]pyridin-3-yl)indolin-1-yl)prop-2-en-1-one 2,2,2-trifluoroacetate]",89 % remaining after 50 min,≤ 100 nM,100 to 500 nM,≤ 100 nM,≤ 100 nM,500 to 1000 nM,100 to 500 nM,≤ 100 nM
"C=CC(=O)N1CCOc2ccc(-c3c(-c4ccc(N5CCN(CC)CC5)cc4)[nH]c4nccc(Cl)c34)cc21 [Example 99, 1-(6-(4-chloro-2-(4-(4-ethylpiperazin-1-yl)phenyl)-1H-pyrrolo[2,3-b]pyridin-3-yl)-2H-benzo[b][1,4]oxazin-4(3H)-yl)prop-2-en-1-one]",>99 % remaining after 50 min,≤ 100 nM,100 to 500 nM,≤ 100 nM,≤ 100 nM,1000 to 100000 nM,100 to 500 nM,100 to 500 nM
"C=CC(=O)Nc1cc(-c2c(-c3ccc(OCCN4CCCC4)cc3)[nH]c3nccc(Cl)c23)ccc1C [Example 38, N-(5-(4-chloro-2-(4-(2-(pyrrolidin-1-yl)ethoxy)phenyl)-1H-pyrrolo[2,3-b]pyridin-3-yl)-2-methylphenyl)acrylamide]",>99 % remaining after 50 min,≤ 100 nM,≤ 100 nM,≤ 100 nM,≤ 100 nM,100 to 500 nM,≤ 100 nM,≤ 100 nM
"C=CC(=O)N1CCOc2ccc(-c3c(-c4ccnc(N5CCN(C)CC5)c4)[nH]c4nccc(Cl)c34)cc21 [Example 98, 1-(6-(4-chloro-2-(2-(4-methylpiperazin-1-yl)pyridin-4-yl)-1H-pyrrolo[2,3-b]pyridin-3-yl)-2H-benzo[b][1,4]oxazin-4(3H)-yl)prop-2-en-1-one 2,2,2-trifluoroacetate]",>99 % remaining after 50 min,≤ 100 nM,100 to 500 nM,≤ 100 nM,≤ 100 nM,500 to 1000 nM,100 to 500 nM,100 to 500 nM
"C=CC(=O)Nc1cc(-c2c(-c3ccc(CN(C)C)cc3)[nH]c3ncc(C(=O)OC(C)C)cc23)cc(F)c1C [Example 177, isopropyl 3-(3-acrylamido-5-fluoro-4-methylphenyl)-2-(4-((dimethylamino)methyl)phenyl)-1H-pyrrolo[2,3-b]pyridine-5-carboxylate]",>99 % remaining after 50 min,≤ 100 nM,100 to 500 nM,≤ 100 nM,≤ 100 nM,1000 to 100000 nM,100 to 500 nM,100 to 500 nM

# More lines, now with the values ahead:
Stability in presence of mouse liver microsomes without cofactor NADPH [% remaining after 50 min] [1],IC50 [2],GI50 [3],IC50 [4],IC50 [5],IC50 [6],GI50 [7],IC50 [8],Structure (SMILES)
>99 % remaining after 50 min,≤ 100 nM,100 to 500 nM,≤ 100 nM,≤ 100 nM,1000 to 100000 nM,100 to 500 nM,100 to 500 nM,"C=CC(=O)Nc1cc(-c2c(-c3ccc(N4CCN(C(C)C)CC4)cc3)[nH]c3ncc(C(=O)OC(C)C)cc23)ccc1C [Example 176, isopropyl 3-(3-acrylamido-4-methylphenyl)-2-(4-(4-isopropylpiperazin-1-yl)phenyl)-1H-pyrrolo[2,3-b]pyridine-5-carboxylate]"
>99 % remaining after 50 min,≤ 100 nM,100 to 500 nM,≤ 100 nM,≤ 100 nM,100 to 500 nM,100 to 500 nM,≤ 100 nM,"C=CC(=O)Nc1cc(-c2c(-c3cccc(OCCN4CCCC4)c3)[nH]c3nccc(Cl)c23)ccc1C [Example 37, N-(5-(4-chloro-2-(3-(2-(pyrrolidin-1-yl)ethoxy)phenyl)-1H-pyrrolo[2,3-b]pyridin-3-yl)-2-methylphenyl)acrylamide]"
98 % remaining after 50 min,≤ 100 nM,100 to 500 nM,≤ 100 nM,≤ 100 nM,500 to 1000 nM,100 to 500 nM,≤ 100 nM,"C=CC(=O)N1CCc2ccc(-c3c(-c4cccc(CN5CCN(C)CC5)c4)[nH]c4nccc(Cl)c34)cc21 [Example 69, 1-(6-(4-chloro-2-(3-((4-methylpiperazin-1-yl)methyl)phenyl)-1H-pyrrolo[2,3-b]pyridin-3-yl)indolin-1-yl)prop-2-en-1-one]"
>99 % remaining after 50 min,≤ 100 nM,100 to 500 nM,≤ 100 nM,≤ 100 nM,1000 to 100000 nM,100 to 500 nM,100 to 500 nM,"C=CC(=O)N1CCc2ccc(-c3c(-c4ccc(OCCN(C)C)cc4)[nH]c4nccc(Cl)c34)cc21 [Example 67, 1-(6-(4-chloro-2-(4-(2-(dimethylamino)ethoxy)phenyl)-1H-pyrrolo[2,3-b]pyridin-3-yl)indolin-1-yl)prop-2-en-1-one]"
>99 % remaining after 50 min,≤ 100 nM,100 to 500 nM,≤ 100 nM,≤ 100 nM,100 to 500 nM,100 to 500 nM,100 to 500 nM,"C=CC(=O)Nc1cc(-c2c(-c3ccc(N4CCN(C)CC4)cc3)[nH]c3ncc(C(=O)NC4CCCCC4)cc23)ccc1C [Example 120, 3-(3-acrylamido-4-methylphenyl)-N-cyclohexyl-2-(4-(4-methylpiperazin-1-yl)phenyl)-1H-pyrrolo[2,3-b]pyridine-5-carboxamide]"
>99 % remaining after 50 min,≤ 100 nM,100 to 500 nM,≤ 100 nM,≤ 100 nM,1000 to 100000 nM,100 to 500 nM,100 to 500 nM,"C=CC(=O)Nc1cc(-c2c(-c3ccc(OCCN4CCCC4)cc3)[nH]c3ncc(C(=O)OC(C)C)cc23)ccc1C [Example 158, isopropyl 3-(3-acrylamido-4-methylphenyl)-2-(4-(2-(pyrrolidin-1-yl)ethoxy)phenyl)-1H-pyrrolo[2,3-b]pyridine-5-carboxylate]"
>99 % remaining after 50 min,≤ 100 nM,100 to 500 nM,≤ 100 nM,≤ 100 nM,500 to 1000 nM,100 to 500 nM,≤ 100 nM,"C=CC(=O)N1CCc2ccc(-c3c(-c4cccc(OCCN5CCCC5)c4)[nH]c4nccc(Cl)c34)cc21 [Example 64, 1-(6-(4-chloro-2-(3-(2-(pyrrolidin-1-yl)ethoxy)phenyl)-1H-pyrrolo[2,3-b]pyridin-3-yl)indolin-1-yl)prop-2-en-1-one]"
>99 % remaining after 50 min,≤ 100 nM,100 to 500 nM,≤ 100 nM,≤ 100 nM,100 to 500 nM,100 to 500 nM,≤ 100 nM,"C=CC(=O)Nc1cc(-c2c(-c3ccc(N4CCN(C)CC4)c(F)c3)[nH]c3nccc(Cl)c23)ccc1C [Example 42, N-(5-(4-chloro-2-(3-fluoro-4-(4-methylpiperazin-1-yl)phenyl)-1H-pyrrolo[2,3-b]pyridin-3-yl)-2-methylphenyl)acrylamide]"
